Reference: the Kinase Knowledgebase extract (Sharma et al. 2016)

Target: EGFR (UniProt P00533)
Conditions: concentration not given here

EGFR, sequence (P00533 whole entry, looked up): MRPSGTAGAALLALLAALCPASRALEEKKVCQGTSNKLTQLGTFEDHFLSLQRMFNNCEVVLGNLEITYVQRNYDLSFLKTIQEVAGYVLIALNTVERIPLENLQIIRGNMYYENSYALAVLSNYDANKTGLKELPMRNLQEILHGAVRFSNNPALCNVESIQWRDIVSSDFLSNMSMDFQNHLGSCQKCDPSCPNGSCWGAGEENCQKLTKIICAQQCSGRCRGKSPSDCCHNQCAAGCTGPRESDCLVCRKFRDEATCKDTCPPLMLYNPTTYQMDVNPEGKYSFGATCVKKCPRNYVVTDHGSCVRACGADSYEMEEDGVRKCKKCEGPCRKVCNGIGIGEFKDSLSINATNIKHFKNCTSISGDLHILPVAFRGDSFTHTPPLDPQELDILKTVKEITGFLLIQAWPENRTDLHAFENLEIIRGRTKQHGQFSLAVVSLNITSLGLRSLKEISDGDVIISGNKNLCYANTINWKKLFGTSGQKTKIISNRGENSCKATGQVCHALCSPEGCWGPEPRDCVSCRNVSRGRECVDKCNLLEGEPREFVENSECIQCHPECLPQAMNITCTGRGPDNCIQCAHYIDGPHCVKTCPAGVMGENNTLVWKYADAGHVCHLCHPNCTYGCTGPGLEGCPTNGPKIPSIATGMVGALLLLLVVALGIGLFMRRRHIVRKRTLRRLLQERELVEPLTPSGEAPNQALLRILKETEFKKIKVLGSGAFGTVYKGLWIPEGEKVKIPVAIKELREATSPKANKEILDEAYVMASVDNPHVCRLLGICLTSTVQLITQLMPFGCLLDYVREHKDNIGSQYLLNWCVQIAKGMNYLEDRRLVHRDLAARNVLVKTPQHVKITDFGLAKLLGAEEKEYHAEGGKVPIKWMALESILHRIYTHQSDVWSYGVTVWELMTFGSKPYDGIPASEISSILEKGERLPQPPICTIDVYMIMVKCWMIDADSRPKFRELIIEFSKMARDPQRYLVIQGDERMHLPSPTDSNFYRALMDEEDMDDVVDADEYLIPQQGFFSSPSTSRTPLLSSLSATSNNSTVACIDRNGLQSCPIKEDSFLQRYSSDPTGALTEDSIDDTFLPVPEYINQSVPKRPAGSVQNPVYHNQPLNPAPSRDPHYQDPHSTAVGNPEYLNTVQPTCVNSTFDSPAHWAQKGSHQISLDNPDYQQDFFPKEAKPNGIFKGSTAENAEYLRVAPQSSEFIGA

Row | inhibition | Structure (SMILES)
1 | 5.84% | C=CC(=O)Nc1ccc(OC)c(C(=O)Nc2cccc(C(O)c3ccccc3)c2)c1 (centres undefined)
2 | 1.59% | C=CC(=O)Nc1ccc(OC)c(C(=O)Nc2cccc(Oc3ccccc3)c2)c1
3 | 46.6% | CCC(=O)Nc1ccc(O)c(C(=O)Nc2cccc(C(=O)N(CC)CC)c2)c1
4 | 48.5% | CCC(=O)Nc1ccc(O)c(C(=O)Nc2ccc(Oc3ccccc3)cc2)c1
